In ChEMBL document CHEMBL1134253, “HIV Rev peptides conjugated with peptide nucleic acids and their efficient binding to RRE RNA” (Bioorg Med Chem Lett, 2001):

Columns and labels:
[1] = target: Rev responsive element (RRE) RNA; assay: Dissociation constant of compound with Rev-responsive element (RRE) IIB RNA was determined by the competition assay; assay type: nucleic-acid assay
[2] = system: Rev responsive element (RRE) RNA; assay: Ratio of the dissociation constant between Rev37-50 and the PNA-peptide; assay type: nucleic-acid assay

Structure (SMILES) | Kd [1] | Ratio [2]
C[C@H](NC(=O)CN(CCNC(=O)CN(CCNC(=O)CN(CCNC(=O)CN(CCNC(=O)CCC(=O)O)C(=O)Cn1cnc2c(=O)[nH]c(N)nc21)C(=O)Cn1ccc(N)nc1=O)C(=O)Cn1cnc2c(=O)[nH]c(N)nc21)C(=O)Cn1ccc(N)nc1=O)C(=O)N[C@@H](CCCNC(=N)N)C(=O)N[C@@H](CCCNC(=N)N)C(=O)N[C@@H](CC(N)=O)C(=O)N[C@@H](CCCNC(=N)N)C(=O)N[C@@H](CCCNC(=N)N)C(=O)N[C@@H](CCCNC(=N)N)C(=O)N[C@@H](CCCNC(=N)N)C(=O)N[C@@H](Cc1c[nH]c2ccccc12)C(=O)N[C@@H](CCCNC(=N)N)C(=O)N[C@@H](CCC(=O)O)C(=O)N[C@@H](CCCNC(=N)N)C(=O)N[C@@H](CCC(N)=O)C(=O)N[C@H](CCCNC(=N)N)C(N)=O | 0.0057 µM | 15
C[C@H](NC(=O)CN(CCNC(=O)CN(CCNC(=O)CN(CCNC(=O)CCC(=O)O)C(=O)Cn1cnc2c(=O)[nH]c(N)nc21)C(=O)Cn1cnc2c(=O)[nH]c(N)nc21)C(=O)Cn1ccc(N)nc1=O)C(=O)N[C@@H](CCCNC(=N)N)C(=O)N[C@@H](CCCNC(=N)N)C(=O)N[C@@H](CC(N)=O)C(=O)N[C@@H](CCCNC(=N)N)C(=O)N[C@@H](CCCNC(=N)N)C(=O)N[C@@H](CCCNC(=N)N)C(=O)N[C@@H](CCCNC(=N)N)C(=O)N[C@@H](Cc1c[nH]c2ccccc12)C(=O)N[C@@H](CCCNC(=N)N)C(=O)N[C@@H](CCC(=O)O)C(=O)N[C@@H](CCCNC(=N)N)C(=O)N[C@@H](CCC(N)=O)C(=O)N[C@H](CCCNC(=N)N)C(N)=O | 0.0087 µM | 9.9
Cc1cn(CC(=O)N(CCNC(=O)CCC(=O)O)CC(=O)N[C@@H](C)C(=O)N[C@@H](CCCNC(=N)N)C(=O)N[C@@H](CCCNC(=N)N)C(=O)N[C@@H](CC(N)=O)C(=O)N[C@@H](CCCNC(=N)N)C(=O)N[C@@H](CCCNC(=N)N)C(=O)N[C@@H](CCCNC(=N)N)C(=O)N[C@@H](CCCNC(=N)N)C(=O)N[C@@H](Cc2c[nH]c3ccccc23)C(=O)N[C@@H](CCCNC(=N)N)C(=O)N[C@@H](CCC(=O)O)C(=O)N[C@@H](CCCNC(=N)N)C(=O)N[C@@H](CCC(N)=O)C(=O)N[C@H](CCCNC(=N)N)C(N)=O)c(=O)[nH]c1=O | 0.039 µM | 2.2
Cc1cn(CC(=O)N(CCNC(=O)CCC(=O)O)CC(=O)NCCN(CC(=O)NCCN(CC(=O)N[C@@H](C)C(=O)N[C@@H](CCCNC(=N)N)C(=O)N[C@@H](CCCNC(=N)N)C(=O)N[C@@H](CC(N)=O)C(=O)N[C@@H](CCCNC(=N)N)C(=O)N[C@@H](CCCNC(=N)N)C(=O)N[C@@H](CCCNC(=N)N)C(=O)N[C@@H](CCCNC(=N)N)C(=O)N[C@@H](Cc2c[nH]c3ccccc23)C(=O)N[C@@H](CCCNC(=N)N)C(=O)N[C@@H](CCC(=O)O)C(=O)N[C@@H](CCCNC(=N)N)C(=O)N[C@@H](CCC(N)=O)C(=O)N[C@H](CCCNC(=N)N)C(N)=O)C(=O)Cn2ccc(N)nc2=O)C(=O)Cn2cnc3c(=O)[nH]c(N)nc32)c(=O)[nH]c1=O | 0.017 µM | 5.1
Cc1cn(CC(=O)N(CCNC(=O)CCC(=O)O)CC(=O)NCCN(CC(=O)N[C@@H](C)C(=O)N[C@@H](CCCNC(=N)N)C(=O)N[C@@H](CCCNC(=N)N)C(=O)N[C@@H](CC(N)=O)C(=O)N[C@@H](CCCNC(=N)N)C(=O)N[C@@H](CCCNC(=N)N)C(=O)N[C@@H](CCCNC(=N)N)C(=O)N[C@@H](CCCNC(=N)N)C(=O)N[C@@H](Cc2c[nH]c3ccccc23)C(=O)N[C@@H](CCCNC(=N)N)C(=O)N[C@@H](CCC(=O)O)C(=O)N[C@@H](CCCNC(=N)N)C(=O)N[C@@H](CCC(N)=O)C(=O)N[C@H](CCCNC(=N)N)C(N)=O)C(=O)Cn2ccc(N)nc2=O)c(=O)[nH]c1=O | 0.027 µM | 3.2
C[C@H](NC(=O)CN(CCNC(=O)CN(CCNC(=O)CN(CCNC(=O)CCC(=O)O)C(=O)Cn1ccc(N)nc1=O)C(=O)Cn1ccc(N)nc1=O)C(=O)Cn1ccc(N)nc1=O)C(=O)N[C@@H](CCCNC(=N)N)C(=O)N[C@@H](CCCNC(=N)N)C(=O)N[C@@H](CC(N)=O)C(=O)N[C@@H](CCCNC(=N)N)C(=O)N[C@@H](CCCNC(=N)N)C(=O)N[C@@H](CCCNC(=N)N)C(=O)N[C@@H](CCCNC(=N)N)C(=O)N[C@@H](Cc1c[nH]c2ccccc12)C(=O)N[C@@H](CCCNC(=N)N)C(=O)N[C@@H](CCC(=O)O)C(=O)N[C@@H](CCCNC(=N)N)C(=O)N[C@@H](CCC(N)=O)C(=O)N[C@H](CCCNC(=N)N)C(N)=O | 0.034 µM | 2.5
